Test results published in PubChem BioAssay (NCI).
Several values for one entry are separate records, joined by “and”; a condition that tells them apart may be missing. Equal values may be shown once.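 Test compounds were applied to cells in 96-well plates for 48 hours at 5 doses. GI50 is the concentration that inhibits growth by half. TGI: total growth inhibition.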

How the values were obtained:
Assay in all cases: NCI anticancer screen, dose series, 48 h
EKVX NSCLC = test system: EKVX NSCLC
HCT-15 colon = test system: HCT-15 colon
KM12 colon = test system: KM12 colon
M14 melanoma = test system: M14 melanoma
MOLT-4 leukemia = test system: MOLT-4 leukemia
TK-10 renal = test system: TK-10 renal
U251 CNS = test system: U251 CNS
NCI-H226 lung = test system: NCI-H226 lung
OVCAR-8 ovarian = test system: OVCAR-8 ovarian
HL-60(TB) leukemia = test system: HL-60(TB) leukemia

Compound | GI50 (EKVX NSCLC) [µM] | TGI (EKVX NSCLC) [µM] | GI50 (HCT-15 colon) | TGI (HCT-15 colon) [µM] | GI50 (KM12 colon) [µM] | TGI (KM12 colon) [µM] | GI50 (M14 melanoma) [µM] | TGI (M14 melanoma) [µM] | GI50 (MOLT-4 leukemia) [µM] | TGI (MOLT-4 leukemia) [µM] | GI50 (TK-10 renal) [µM] | TGI (TK-10 renal) [µM] | GI50 (U251 CNS) [µM] | TGI (U251 CNS) [µM] | GI50 (NCI-H226 lung) [µM] | TGI (NCI-H226 lung) [µM] | GI50 (OVCAR-8 ovarian) [µM] | TGI (OVCAR-8 ovarian) [µM] | TGI (HL-60(TB) leukemia) [µM] | GI50 (HL-60(TB) leukemia) [µM]
O=C([CH-]C(=O)c1ccccc1)c1ccccc1.O=C([CH-]C(=O)c1ccccc1)c1ccccc1.O=C([CH-]C(=O)c1ccccc1)c1ccccc1.[Cl-].[Zr+4] | 4.03 | 26.8 | 18.2 µM | > 100 | 12.4 | 56.6 | 12.6 | 39 | 9.75 | > 100 | 27.6 | 72.4 | 12.1 | > 100 |  |  |  |  |  | 
O=C(O)Cn1ccc2ccccc21 | > 100 | > 100 | > 100 µM | > 100 | > 100 | > 100 | > 100 | > 100 |  |  |  |  | > 100 | > 100 | > 100 | > 100 | > 100 | > 100 |  | 
Cc1ccccc1N=Nc1c(-c2ccccc2)nn(C(=O)CC(=O)Nc2cccc(Cl)c2)c1-c1ccccc1 |  | > 31.6 |  | > 31.6 |  |  |  | > 31.6 |  | 22.7 |  |  |  | 19.6 |  | > 31.6 |  | > 31.6 | 24.5 | 
CCOc1ccc(C(C)=O)cc1NC(=O)c1cccc(-c2nnn(CC)n2)c1 | 0.83 | > 100 | 0.419 µM | > 100 |  |  | 0.396 | > 100 | 0.682 | > 100 | 14.3 | 50.3 | 0.458 | 16.7 | 11.2 | > 100 | 1.29 | > 100 |  | 
Cc1cc2c(cc1CO)N1Cc3cc(C)c(CO)cc3N(C2)C1 |  | > 100 |  |  |  | > 100 |  | > 100 |  | > 100 |  | > 100 |  | > 100 |  | > 100 |  | > 100 | > 100 | 
C=Cc1c(C)c2cc3[nH]c(cc4nc(cc5nc(cc1[nH]2)C(C)=C5CCC(=O)N(CC)CC)C(CCC(=O)N(CC)CC)=C4C)c(C)c3C=C |  | > 100 |  | > 100 |  | > 100 |  | > 100 |  | > 100 |  | > 100 |  | > 100 |  |  |  | > 100 | > 100 | 
O=C(/C=C\n1cnc(-c2cc(C(F)(F)F)cc(C(F)(F)F)c2)n1)N1CC(F)(F)C1 | 0.953 | 14.6 | 0.651 µM | 4.86 | 2.41 | > 25 | 1.36 | 6.57 | 0.197 | 0.944 | 0.645 | 3.7 | 0.248 | 3.66 |  |  | 0.442 | > 11.8 | > 17.1 | 0.399
Cn1cc(C2=C(c3ccccc3C(F)(F)F)C(=O)NC2=O)c2ccccc21 |  |  | 9.59 µM | > 25 | 6.97 | > 25 | 19.8 | > 25 | 5.89 | > 22.6 | 10.2 | > 25 | 7.06 | > 25 | 7.07 | > 24.2 | 10.4 | > 25 | 17.5 | 6.87
O=C(NC(=O)c1cn(CCN2CCN(C(=O)NCCCCCCNC(=O)N3CCN(CCn4cc(C(=O)NC(=O)OCc5ccccc5)c(=O)[nH]c4=O)CC3)CC2)c(=O)[nH]c1=O)OCc1ccccc1 |  | > 100 |  | > 100 |  |  |  | > 100 |  | > 100 |  | > 100 |  | > 100 |  |  |  | > 100 | > 100 | 
O=C(/C(=N/Nc1ccccc1)c1ccc([N+](=O)[O-])cc1)c1ccc([N+](=O)[O-])cc1 |  | > 100 |  | > 100 |  | > 100 |  | > 100 |  | > 100 |  | > 100 |  | > 100 |  |  |  | > 100 |  | 
COc1cc(-c2nccc3cc4c(cc23)OCO4)cc(OC)c1OC | 7.1 | > 100 | 3.57 µM | > 100 | 2.27 | > 100 | 3.36 | 23.2 |  |  | 5.64 | > 100 | 4.86 | > 100 | 16.4 | > 100 | 7.08 | > 100 |  | 
COc1cc(Nc2ncnc(Nc3ccc4c(n3)NC(=O)C(C)(C)O4)n2)cc(OC)c1OC |  |  | 1.7 µM | > 100 | 0.395 | > 100 | 5.15 | > 100 | 5.24 | > 100 | 0.457 | > 100 | 1.5 | > 100 | 0.297 | > 100 | 10.9 | > 100 | > 100 | 4.52
CCCCN1C(=O)/C(=c2\sc3n(c2=O)C2C(NN=3)N(CC)C(=O)N2CC)c2ccccc21 (centres undefined) | 1.38 | > 100 |  |  |  |  | 0.479 | 2.31 | 2.73 | > 100 | 1.82 | 6.26 | 0.773 | 3.39 |  |  |  |  | 3.46 | 1.05
O=c1c2cccnc2ncn1CCCN1CCCC1 |  | > 100 |  |  |  | > 100 |  | > 100 |  | > 100 |  | > 100 |  | > 100 |  | > 100 |  | > 100 |  | 
Cn1cncc1-c1c(F)cncc1NC(=O)c1c(N)nn2cc(F)cnc12 | 5.18 | > 100 | 0.18 µM | > 100 | 1.52 | > 100 | 0.231 | 91.4 | 0.203 | 1.1 | 4.54 | 83.7 | 4.48 | > 100 |  |  | 5.83 | > 100 | 0.717 | 0.272
CN(C)CCCCCNc1c2ccccc2nc2cccc([N+](=O)[O-])c12 |  | 0.0128 | 0.00218 µM and 0.00274 µM |  |  | 0.0725 |  | 0.00312 | 0.00627 | > 0.1 |  | 0.0207 | 0.0065 | 0.0251 |  | 0.057 |  |  | > 0.1 | 0.00266
COc1ccc(-c2nsc3c2NC(=O)CC3c2cccc(Cl)c2)cc1 (centres undefined) |  |  | 0.646 µM | > 100 | 0.743 | > 100 | 1.46 | > 100 | 4.11 | > 100 | 3.48 | > 100 | 2.33 | > 100 | 10.8 | > 100 | 4.35 | > 100 | > 27.6 | 2.28
